Source: PMC11542830, “3-nitropyridine analogues as novel microtubule-targeting agents” (PLOS ONE, 2024)

Key:
Jurkat cells = assay: Apoptosis induction, annexin V/PI staining, Jurkat; assay type: cell-based, human; settings: 24 hours, dose-dependent
PBMC = assay: Annexin V/PI flow cytometry viability, PBMC; assay type: cell-based; settings: Homo sapiens, 72 hours, normal cells, Fig 1C
Source text: Buffy coat preparations from healthy donors were obtained from the Blood Transfusion Center in Leuven, Belgium. Peripheral blood mononuclear cells (PBMC) were isolated by density gradient centrifugation over Lymphoprep™ (Axis Shield PoC AS; density 1.077 ± 0.001 g/mL) and cultured in cell culture medium (DMEM/F12, Gibco Thermo Fisher Scientific) containing 8% fetal bovine serum. Each donor consented to the use of his blood for research purposes.
(§1) Cell viability in cancer cell lines treated with compound was measured in a 3-day MTS cell proliferation assay using the CellTiter 96 AQueous Non-Radioactive Cell Proliferation Assay reagent (Promega) according to the manufacturer’s instructions. Absorbance was read at 490 nm on a SaFire II microplate reader (Tecan). CC50 values were calculated by fitting the obtained MTS cell viability data in GraphPad Prism using a 4-parameter log–based fit for inhibitors. Apoptosis induction and cell death upon compound treatment in PBMC was measured using the Alexa Fluor 488 Annexin V/Dead Cell Apoptosis Kit (Thermo Fisher Scientific), with readout on a FACSCanto II flow cytometer (BD Biosciences). For cell cycle analysis, Jurkat cells were seeded at 400,000 cells per well in 12-well tissue culture plates and treated with the test compounds at the indicated concentrations for 24 h. […] The compounds were evaluated in duplo in two independent experiments.

UACC-62 = assay: NCI60 5-dose screen, UACC-62; assay type: cell-based; settings: Homo sapiens, melanoma, Fig 1D, read-out: Log10 GI50 (UACC-62) (converted)
Procedure: (§2) The screening methodology used in the NCI60 Cell 5-Doses screen is described in detail at https://dtp.cancer.gov/discovery_development/nci-60/methodology.htm. Briefly, cells are seeded in 96 well plates at an appropriate density and incubated for 1 day. After 1 day, some of the plates are processed to determine a time zero density. To the remaining plates, compounds are added over a 5-log M concentration range (1 log dilutions from 10^-4M to 10^-8M). Plates are incubated for two additional days, then fixed and stained with sulforhodamine B. Growth inhibition is calculated relative to cells without drug treatment and the time zero control. The GI50 is the concentration of a compound that causes 50% growth inhibition, relative to the no drug control.

OVCAR-8 = assay: NCI60 5-dose screen, OVCAR-8; assay type: cell-based; settings: Homo sapiens, ovarian cancer, Fig 1D, read-out: Log10 GI50 (OVCAR-8) (converted)
Procedure: as §2

MCF7 = assay: NCI60 5-dose screen, MCF7; assay type: cell-based; settings: Homo sapiens, breast cancer, Fig 1D, read-out: Log10 GI50 (MCF7) (converted)
Procedure: as §2

MOLT-4 = assay: NCI60 5-dose screen, MOLT-4; assay type: cell-based; settings: Homo sapiens, leukemia, Fig 1D, read-out: Log10 GI50 (MOLT-4) (converted)
Procedure: as §2

HL-60(TB) = assay: NCI60 5-dose screen, HL-60(TB); assay type: cell-based; settings: Homo sapiens, leukemia, Fig 1D, read-out: Log10 GI50 (HL-60(TB)) (converted)
Procedure: as §2

A498 = assay: NCI60 5-dose screen, A498; assay type: cell-based; settings: Homo sapiens, renal cancer, Fig 1D, read-out: Log10 GI50 (A498) (converted)
Procedure: as §2

IGROV1 = assay: NCI60 5-dose screen, IGROV1; assay type: cell-based; settings: Homo sapiens, IGROV-1; ovarian cancer; Fig 1D; read-out: Log10 GI50 (IGROV1) (converted)
Procedure: as §2

SNB-75 = assay: NCI60 5-dose screen, SNB-75; assay type: cell-based; settings: Homo sapiens, CNS cancer, Fig 1D, read-out: Log10 GI50 (SNB-75) (converted)
Procedure: as §2

SF-295 = assay: NCI60 5-dose screen, SF-295; assay type: cell-based; settings: Homo sapiens, CNS cancer, Fig 1D, read-out: Log10 GI50 (SF-295) (converted)
Procedure: as §2

SW-620 = assay: NCI60 5-dose screen, SW-620; assay type: cell-based; settings: Homo sapiens, colon cancer, Fig 1D, read-out: Log10 GI50 (SW-620) (converted)
Procedure: as §2

DU-145 = assay: NCI60 5-dose screen, DU-145; assay type: cell-based; settings: Homo sapiens, prostate cancer, Fig 1D, read-out: Log10 GI50 (DU-145) (converted)
Procedure: as §2

CAKI-1 = assay: NCI60 5-dose screen, CAKI-1; assay type: cell-based; settings: Homo sapiens, renal cancer, Fig 1D, read-out: Log10 GI50 (CAKI-1) (converted)
Procedure: as §2

MRC-5 cells = assay: 3-day MTS cell viability assay, MRC-5; assay type: cell-based; settings: Homo sapiens, MRC5, 72 hours, normal lung fibroblast cells, Fig 1C
Procedure: All cancer cell lines (HT-29: colorectal adenocarcinoma, HCT-116: colorectal carcinoma, A549: lung epithelial carcinoma, PC3: prostate adenocarcinoma, Jurkat: acute T-cell leukemia, BC-1: primary effusion lymphoma) and the normal human embryonal lung fibroblast cell line MRC-5 were acquired from the American Type Culture Collection (ATCC). All cell lines were cultured as recommended by the suppliers. Culture media were purchased from Gibco (Thermo Fisher Scientific) and supplemented with 10 to 20% fetal bovine serum (HyClone, GE Healthcare Life Sciences) and 20–25 μg/mL gentamicin (Gibco, Thermo Fisher Scientific). […]
as §1, with “Biosciences).” for “Biosciences). For cell cycle analysis, Jurkat cells were seeded at 400,000 cells per well in 12-well tissue culture plates and treated with the test compounds at the indicated concentrations for 24 h.”

SF-268 = assay: NCI60 5-dose screen, SF-268; assay type: cell-based; settings: Homo sapiens, CNS cancer, Fig 1D, read-out: Log10 GI50 (SF-268) (converted)
Procedure: as §2

COLO 205 = assay: NCI60 5-dose screen, COLO 205; assay type: cell-based; settings: Homo sapiens, colon cancer, Fig 1D, read-out: Log10 GI50 (COLO 205) (converted)
Procedure: as §2

HCC-2998 = assay: NCI60 5-dose screen, HCC-2998; assay type: cell-based; settings: Homo sapiens, colon cancer, Fig 1D, read-out: Log10 GI50 (HCC-2998) (converted)
Procedure: as §2

M14 = assay: NCI60 5-dose screen, M14; assay type: cell-based; settings: Homo sapiens, melanoma, Fig 1D, read-out: Log10 GI50 (M14) (converted)
Procedure: as §2

SMILES	apoptosis induction (Jurkat cells)	IC50 (PBMC)	GI50 (UACC-62)	GI50 (OVCAR-8)	GI50 (MCF7)	GI50 (MOLT-4)	GI50 (HL-60(TB))	GI50 (A498)	GI50 (IGROV1)	GI50 (SNB-75)	GI50 (SF-295)	GI50 (SW-620)	GI50 (DU-145)	GI50 (CAKI-1)	IC50 (MRC-5 cells)	GI50 (SF-268)	GI50 (COLO 205)	GI50 (HCC-2998)	GI50 (M14)
Cc1cc(C)cc(Nc2ccc([N+](=O)[O-])c(NCCN3CCOCC3)n2)c1 [Compound 4AZA2891, 6-(3,5-dimethylanilino)-2-(2-morpholinoethylamino)-3-nitropyridine]	induce apoptosis	76700 nM	< 10 nM	37.2 nM	< 10 nM	56.2 nM	25.7 nM	< 10 nM	49 nM	< 10 nM	< 10 nM	14.8 nM	41.7 nM	< 10 nM	29600 nM	135 nM	21.4 nM	28.8 nM	12 nM
Cc1ccnc(Nc2ccc([N+](=O)[O-])c(NCCN3CCOCC3)n2)c1 [Compound 4AZA2996, N^6-(4-methylpyridin-2-yl)-N^2-(2-morpholinoethyl)-3-nitropyridine-2,6-diamine]	induce apoptosis	14100 nM	< 10 nM	20 nM	< 10 nM	35.5 nM	< 10 nM	< 10 nM	57.5 nM	< 10 nM	< 10 nM	< 10 nM	25.7 nM	< 10 nM	23300 nM	58.9 nM	< 10 nM	17 nM	< 10 nM
